Test results published in patent publication US20240228463A1, “SODIUM CHANNEL INHIBITORS AND METHODS OF DESIGNING SAME” (Genentech, Inc., priority 2021, published 2024).

target: T1, hNaV1.7 (Homo sapiens, UniProt Q15858); assay: Patch voltage clamp electrophysiology (EP), Syncropatch 384PE, Nav1.7 in CHO cells; assay type: cell-based; conditions: hNaV1.7 EP_SP, holding potential −50 mV, inhibition based on 7.5 min compound incubation;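 also: Nav1.7 stably expressed from cDNA in CHO cells, holding potential of −50 mV kept for the entire experiment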
T1 construct: expressed in transfected cells
T1 sequence (Q15858 1-1977 isoform Q15858-3): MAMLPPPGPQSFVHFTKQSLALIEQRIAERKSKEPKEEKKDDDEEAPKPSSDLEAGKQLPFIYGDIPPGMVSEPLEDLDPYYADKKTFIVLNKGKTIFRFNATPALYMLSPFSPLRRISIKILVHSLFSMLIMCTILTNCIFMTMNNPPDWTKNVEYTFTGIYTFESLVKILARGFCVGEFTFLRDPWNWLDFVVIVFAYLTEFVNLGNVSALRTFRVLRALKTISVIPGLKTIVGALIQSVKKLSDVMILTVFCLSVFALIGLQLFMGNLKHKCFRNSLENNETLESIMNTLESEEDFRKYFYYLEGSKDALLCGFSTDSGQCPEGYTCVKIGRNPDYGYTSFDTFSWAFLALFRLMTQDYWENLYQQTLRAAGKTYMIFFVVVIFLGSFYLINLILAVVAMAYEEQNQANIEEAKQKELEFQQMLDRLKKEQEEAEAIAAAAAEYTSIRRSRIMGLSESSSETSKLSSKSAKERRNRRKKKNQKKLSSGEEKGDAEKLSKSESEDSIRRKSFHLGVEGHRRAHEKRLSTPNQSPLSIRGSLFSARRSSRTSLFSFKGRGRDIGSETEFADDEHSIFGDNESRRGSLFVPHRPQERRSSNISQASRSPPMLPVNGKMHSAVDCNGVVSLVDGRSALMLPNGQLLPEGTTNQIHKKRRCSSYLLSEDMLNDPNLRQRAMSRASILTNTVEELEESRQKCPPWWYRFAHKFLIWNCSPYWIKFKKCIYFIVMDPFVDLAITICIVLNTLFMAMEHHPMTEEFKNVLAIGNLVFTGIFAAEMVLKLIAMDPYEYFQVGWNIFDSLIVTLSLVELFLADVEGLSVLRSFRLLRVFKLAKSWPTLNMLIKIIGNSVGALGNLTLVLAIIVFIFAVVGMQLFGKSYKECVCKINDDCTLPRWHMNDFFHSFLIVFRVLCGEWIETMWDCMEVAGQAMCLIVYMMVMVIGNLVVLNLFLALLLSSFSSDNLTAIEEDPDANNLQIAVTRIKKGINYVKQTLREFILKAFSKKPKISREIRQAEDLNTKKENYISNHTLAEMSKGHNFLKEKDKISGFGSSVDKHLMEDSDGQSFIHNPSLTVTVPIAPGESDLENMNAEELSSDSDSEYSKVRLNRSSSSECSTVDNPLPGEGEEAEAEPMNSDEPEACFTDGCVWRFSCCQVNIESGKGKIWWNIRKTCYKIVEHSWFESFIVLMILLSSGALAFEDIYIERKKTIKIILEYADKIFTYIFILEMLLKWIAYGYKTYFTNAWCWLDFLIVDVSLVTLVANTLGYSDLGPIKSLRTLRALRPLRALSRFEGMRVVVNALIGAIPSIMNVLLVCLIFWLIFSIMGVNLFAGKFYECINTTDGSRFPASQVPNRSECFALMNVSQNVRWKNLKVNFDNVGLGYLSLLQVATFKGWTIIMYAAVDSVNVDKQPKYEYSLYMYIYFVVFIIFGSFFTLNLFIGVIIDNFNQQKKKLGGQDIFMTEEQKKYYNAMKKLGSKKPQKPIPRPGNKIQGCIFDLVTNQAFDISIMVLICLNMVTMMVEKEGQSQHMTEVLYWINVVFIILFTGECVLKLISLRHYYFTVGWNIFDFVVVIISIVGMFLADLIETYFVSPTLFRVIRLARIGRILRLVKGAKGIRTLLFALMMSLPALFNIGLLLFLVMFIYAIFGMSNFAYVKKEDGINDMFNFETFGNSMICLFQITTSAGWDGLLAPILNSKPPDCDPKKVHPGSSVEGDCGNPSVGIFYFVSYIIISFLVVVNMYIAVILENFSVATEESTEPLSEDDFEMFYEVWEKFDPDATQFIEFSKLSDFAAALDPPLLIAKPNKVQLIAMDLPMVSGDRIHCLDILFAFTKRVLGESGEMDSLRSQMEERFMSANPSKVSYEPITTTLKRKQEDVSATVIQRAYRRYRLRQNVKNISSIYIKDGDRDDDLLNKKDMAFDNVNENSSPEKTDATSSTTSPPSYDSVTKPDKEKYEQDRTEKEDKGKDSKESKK

`O=C(NS(=O)(=O)N1CC[C@@H]2[C@@H](C1)OCC(=O)N2c1ccccc1)c1cc(Cl)c(OCC2CCCC2)cc1F` (single isomer, unassigned) [Example 44] showed an IC50 of 130 nM.

same assay, conditions: holding potential −50 mV, inhibition based on 7.5 min compound incubation, read-out: hNaV1.7 EP_SP

Point of comparison: `O=C(NS(=O)(=O)N1CC(OC2CCNCC2)C1)c1cc(Cl)c(OCC2CCCC2)cc1F` [Example 50, 5-chloro-4-(cyclopentylmethoxy)-2-fluoro-N-((3-(piperidin-4-yloxy)azetidin-1-yl)sulfonyl)benzamide], IC50 260 nM. Against it:
- Cc1cc(C(=O)NS(=O)(=O)N2CCC(OC3CN(C)C3)CC2)c(F)cc1OCC1CCCC1 [Example 2, 4-(cyclopentylmethoxy)-2-fluoro-5-methyl-N-((4-((1-methylazetidin-3-yl)oxy)piperidin-1-yl)sulfonyl)benzamide] — 4.1-fold lower, 64 nM
- O=C(NS(=O)(=O)N1CCC(OC2CN(CC(F)(F)F)C2)CC1)c1cc(Cl)c(OCC2CCCC2)cc1F [Example 13, 5-chloro-4-(cyclopentylmethoxy)-2-fluoro-N-((4-((1-(2,2,2-trifluoroethyl)azetidin-3-yl)oxy)piperidin-1-yl)sulfonyl)benzamide] — within 1.5-fold, 240 nM
- C[C@@H]1CCc2ccccc2N1S(=O)(=O)NC(=O)c1cc(Cl)c(OCC2CCCC2)cc1F (single isomer, unassigned) [Example 18] — 11-fold lower, 24 nM
- O=C(NS(=O)(=O)N1CCCCCC1)c1cc(Cl)c(OCC2CCCC2)cc1F [Example 227, N-(azepan-1-ylsulfonyl)-5-chloro-4-(cyclopentylmethoxy)-2-fluorobenzamide] — 13-fold lower, 20 nM
- O=C(NS(=O)(=O)N1CC[C@@H](OC2CCNCC2)C1)c1cc(Cl)c(OCC2CCCC2)cc1F (single isomer, unassigned) [Example 213] — 1.6-fold higher, 420 nM
- O=C(NS(=O)(=O)c1ccc(OCC(F)(F)F)cc1)c1cc(Cl)c(OCC2CCCC2)cc1F [Example 287, 5-chloro-4-(cyclopentylmethoxy)-2-fluoro-N-((4-(2,2,2-trifluoro-ethoxy)phenyl)sulfonyl)benzamide] — within 1.5-fold, 250 nM
- NC[C@H]1CCCN(S(=O)(=O)NC(=O)c2cc(Cl)c(OCC3CCCC3)cc2F)C1 (single isomer, unassigned) [Example 27, 2,2,2-trifluoroacetate] — 2.9-fold lower, 90 nM
- CN1CC(OC2CCN(S(=O)(=O)NC(=O)c3cc(C4CC4)c(OCC(F)(F)F)cc3F)CC2)C1 [Example 238, 5-cyclopropyl-2-fluoro-N-((4-((1-methylazetidin-3-yl)oxy)piperidin-1-yl)sulfonyl)-4-(2,2,2-trifluoroethoxy)benzamide] — 3.1-fold lower, 84 nM
- CN1CCC(S(=O)(=O)NC(=O)c2cc(Cl)c(OCC3CCCC3)cc2F)C1 (centres unmarked) [Example 323, 5-chloro-4-(cyclopentylmethoxy)-2-fluoro-N-((1-methylpyrrolidin-3-yl)sulfonyl)benzamide] — 1.8-fold higher, 470 nM
- COc1cc(F)c(C(=O)NS(=O)(=O)c2ccc(O[C@H]3CC[C@H](c4cccc(C(F)(F)F)c4)C[C@@H]3N(C)C)cc2F)cc1C1CC1 [Example 74, 5-cyclopropyl-N-((4-(((1S,2S,4S)-2-(dimethylamino)-4-(3-(trifluoro-methyl)phenyl)cyclohexyl)oxy)-2-fluorophenyl)sulfonyl)-2-fluoro-4-methoxybenzamide] — 47-fold lower, 5.5 nM
- O=C(NS(=O)(=O)c1c(F)cccc1F)c1cc(Cl)c(OCC2CCCC2)cc1F [Example 79, 5-chloro-4-(cyclopentylmethoxy)-N-((2,6-difluorophenyl)sulfonyl)-2-fluorobenzamide] — 2.6-fold lower, 100 nM
- O=S(=O)(Nc1noc2cc(OCC3CCCC3)c(C3CC3)cc12)N1CCC(O[C@@H]2CCNC2)CC1 (single isomer, unassigned) [Example 91, 2,2,2-trifluoroacetate] — 3-fold higher, 790 nM
- CN(C)C1CCN(S(=O)(=O)NC(=O)c2cc(Cl)c(OCC3CCCC3)cc2F)CC1 [Example 329, 5-chloro-4-(cyclopentylmethoxy)-N-((4-(dimethylamino)piperidin-1-yl)sulfonyl)-2-fluorobenzamide] — 3.8-fold higher, 1000 nM
- CN(C)C1CCCN(c2ccc(S(=O)(=O)NC(=O)c3cc(Cl)c(OCC4CCCC4)cc3F)c(F)c2)C1 (centres unmarked) [Example 205, 5-chloro-4-(cyclopentylmethoxy)-N-((4-(3-(dimethylamino)piperidin-1-yl)-2-fluorophenyl)sulfonyl)-2-fluorobenzamide] — 6.7-fold lower, 39 nM
- O=C(NS(=O)(=O)c1ccc2c(c1)CCC2)c1cc(Cl)c(OCC2CCCC2)cc1F [Example 262, 5-chloro-4-(cyclopentylmethoxy)-N-((2,3-dihydro-1H-inden-5-yl)sulfonyl)-2-fluorobenzamide] — within 1.5-fold, 270 nM
- CCc1cc(C(=O)NS(=O)(=O)N2CCC(OC3CN(C)C3)CC2)c(F)cc1OCC1CCCC1 [Example 3, 4-(cyclopentylmethoxy)-5-ethyl-2-fluoro-N-((4-((1-methylazetidin-3-yl)oxy)piperidin-1-yl)sulfonyl) benzamide] — 12-fold lower, 22 nM
- CN1CC[C@H](OC2CCN(S(=O)(=O)NC(=O)c3cc(Cl)c(OCC4CCCC4)cc3F)CC2)C1 (single isomer, unassigned) [Example 38] — 6.7-fold lower, 39 nM
- CC(C)N1CC(OC2CCN(S(=O)(=O)NC(=O)c3cc(Cl)c(OCC4CCCC4)cc3F)CC2)C1 [Example 10, 5-chloro-4-(cyclopentylmethoxy)-2-fluoro-N-((4-((1-isopropylazetidin-3-yl)oxy)piperidin-1-yl)sulfonyl)benzamide] — 8.4-fold lower, 31 nM
- CN1CC(OC2CCN(S(=O)(=O)NC(=O)c3cc(C4CC4)c(OCc4ccccc4)cc3F)CC2)C1 [Example 236, 4-(benzyloxy)-5-cyclopropyl-2-fluoro-N-((4-((1-methylazetidin-3-yl)oxy)piperidin-1-yl)sulfonyl)benzamide] — 6.7-fold lower, 39 nM
- O=C(NS(=O)(=O)N1CCCCC1)c1cc(Cl)c(OCC2CCCC2)cc1F [Example 21, 5-chloro-4-(cyclopentylmethoxy)-2-fluoro-N-(piperidin-1-ylsulfonyl)benzamide] — 19-fold lower, 14 nM
- O=C(NS(=O)(=O)C1CC12CCC2)c1cc(Cl)c(OCC2CCCC2)cc1F (centres unmarked) [Example 256, 5-chloro-4-(cyclopentylmethoxy)-2-fluoro-N-(spiro[2.3]hexan-1-ylsulfonyl)benzamide] — 20-fold lower, 13 nM
- CN(C)[C@H]1CCCC[C@@H]1Nc1cc(F)c(S(=O)(=O)Nc2ccc(OCCC3(C(F)(F)F)CC3)cn2)cc1Cl [Example 101, 5-chloro-4-(((1S,2S)-2-(dimethylamino)cyclohexyl)amino)-2-fluoro-N-(5-(2-(1-(trifluoromethyl)cyclopropyl)ethoxy)pyridin-2-yl)benzenesulfonamide] — 1.8-fold higher, 480 nM
- COc1cccc(S(=O)(=O)NC(=O)c2cc(Cl)c(OCC3CCCC3)cc2F)c1 [Example 245, 5-chloro-4-(cyclopentylmethoxy)-2-fluoro-N-((3-methoxyphenyl)sulfonyl)benzamide] — 2.7-fold higher, 690 nM
- O=C(NS(=O)(=O)C1CCCCC1)c1cc(Cl)c(OCC2CCCC2)cc1F [Example 82, 5-chloro-N-(cyclohexylsulfonyl)-4-(cyclopentylmethoxy)-2-fluorobenzamide] — 8.7-fold lower, 30 nM
- CN1CC(OC2CCN(S(=O)(=O)NC(=O)c3cc(Cl)c(Oc4ccc(Cl)c(C(F)(F)F)c4)cc3F)CC2)C1 [Example 239, 5-chloro-4-(4-chloro-3-(trifluoromethyl)phenoxy)-2-fluoro-N-((4-((1-methylazetidin-3-yl)oxy)piperidin-1-yl)sulfonyl)benzamide] — 10-fold lower, 25 nM
- COC1CCN(S(=O)(=O)NC(=O)c2cc(Cl)c(OCC3CCCC3)cc2F)CC1 [Example 20, 5-chloro-4-(cyclopentylmethoxy)-2-fluoro-N-((4-methoxypiperidin-1-yl)sulfonyl)benzamide] — 5.3-fold lower, 49 nM
- O=C(NS(=O)(=O)c1ccc2c(c1)NCC2)c1cc(Cl)c(OCC2CCCC2)cc1F [Example 282, 5-chloro-4-(cyclopentylmethoxy)-2-fluoro-N-(indolin-6-ylsulfonyl)benzamide] — 2.9-fold higher, 760 nM
- CN(C)[C@H]1CCCC[C@@H]1Nc1ccc(S(=O)(=O)Nc2nc3ncc(Br)cc3s2)c(F)c1 [Example 95, N-(6-bromothiazolo[4,5-b]pyridin-2-yl)-4-(((1S,2S)-2-(dimethylamino)-cyclohexyl)amino)-2-fluorobenzenesulfonamide] — 1.5-fold lower, 170 nM
- O=C(NS(=O)(=O)c1ccc(Oc2ccccc2)cc1)c1cc(Cl)c(OCC2CCCC2)cc1F [Example 263, 5-chloro-4-(cyclopentylmethoxy)-2-fluoro-N-((4-phenoxyphenyl)sulfonyl)benzamide] — within 1.5-fold, 220 nM
- Cn1ncnc1COc1ccc(S(=O)(=O)NC(=O)c2cc(Cl)c(OCC3CCCC3)cc2F)cc1 [Example 286, 5-chloro-4-(cyclopentylmethoxy)-2-fluoro-N-((4-((1-methyl-1H-1,2,4-triazol-5-yl)methoxy)phenyl)sulfonyl)benzamide] — 1.6-fold lower, 160 nM
- O=C(NS(=O)(=O)c1ccc(OCc2ccccn2)cc1)c1cc(Cl)c(OCC2CCCC2)cc1F [Example 301, 5-chloro-4-(cyclopentylmethoxy)-2-fluoro-N-((4-(pyridin-2-ylmethoxy)phenyl)sulfonyl)benzamide] — 6.7-fold lower, 39 nM
- NC[C@@H]1CN(S(=O)(=O)NC(=O)c2cc(Cl)c(OCC3CCCC3)cc2F)CCO1 (single isomer, unassigned) [Example 24, 2,2,2-trifluoroacetate] — 2.6-fold lower, 100 nM
- N[C@]12C[C@H]1CN(S(=O)(=O)NC(=O)c1cc(Cl)c(OCC3CCCC3)cc1F)C2 (single isomer, unassigned) [Example 217, 2,2,2-trifluoroacetate] — within 1.5-fold, 370 nM
- N#Cc1ccc(S(=O)(=O)NC(=O)c2cc(Cl)c(OCC3CCCC3)cc2F)c(F)c1 [Example 272, 5-chloro-N-((4-cyano-2-fluorophenyl)sulfonyl)-4-(cyclopentylmethoxy)-2-fluorobenzamide] — within 1.5-fold, 210 nM
- O=C(NS(=O)(=O)c1ccc(C(F)(F)F)cc1)c1cc(Cl)c(OCC2CCCC2)cc1F [Example 283, 5-chloro-4-(cyclopentylmethoxy)-2-fluoro-N-((4-(trifluoromethyl)phenyl)sulfonyl)benzamide] — 2.4-fold higher, 620 nM
- N[C@H]1CCCCN(S(=O)(=O)NC(=O)c2cc(Cl)c(OCC3CCCC3)cc2F)C1 (single isomer, unassigned) [Example 219, 2,2,2-trifluoroacetate] — 2.5-fold higher, 650 nM
